Experimental data published in patent publication US20240376093A1, “SULFOXIMINE COMPOUND AND USE THEREOF” (MEDSHINE DISCOVERY INC., priority 2021, published 2024).
Where a name gives a salt, the structure may show the parent alone. Read-outs that look alike come from different tables or passages of the source.

Tests used:
[1] = Pharmacokinetics of the compound in Balb/c mice; assay type: in vivo; conditions: mouse, plasma, male Balb/c mice, fasted; for AUC: read-out: AUC (exposure)
Description: • Purpose of assay: To assay the pharmacokinetics of the compound in Balb/c mice • Assay materials: Male Balb/c mice, fasted
The pharmacokinetic profiles of compound 1 in rodents after intravenous injection and oral administration were assayed using standard protocols.
Acclimatization/quarantine of Balb/c mice was performed for at least 3 days after arrival at the facility. Upon completion of the acclimatization/quarantine, a veterinarian or designee examined the health status of the Balb/c mice to evaluate whether the animals were suitable for the assay study. All Balb/c mice were fasted overnight before administration and resumed feeding 4 hours after administration. In the assay, the candidate compound was formulated into a homogeneous solution and given to Balb/c mice via a single intravenous injection and oral administration. The intravenous vehicle was a clear solution of 80% polyethylene glycol 400/20% water and the oral vehicle was a homogeneous suspension of ethanol/vitamin E polyethylene glycol succinate/polyethylene glycol 300 (5/5/90). The animals were weighed before administration and the administered volume was calculated based on body weight. Whole blood samples were collected by means of jugular vein puncture within 24 hours. All blood samples were immediately transferred to labeled commercial centrifuge tubes containing K2-EDTA. After blood samples were collected, the blood samples were centrifuged at 3200 g for 10 minutes at 4° C. The supernatant plasma was aspirated, quickly placed on dry ice, and then stored at −60° C. or lower for LC-MS/MS analysis. The data of blood drug concentration-time were analyzed using the WinNonlin software package (Version 6.3 and above) using a non-compartmental model. Pharmacokinetic parameters were calculated, including (if data permitted), but not limited to, peak concentration (Cmax), time to peak (Tmax), elimination half-life (T 1/2), area under plasma concentration-time curve (AUC), mean retention time (MRT), bioavailability, etc.

[2] = tested on: IFNα-stimulated phosphorylated STAT1; assay: Assay of IFNα-stimulated phosphorylated STAT1 in hPBMC (flow cytometry, CD4+ T cells); assay type: cell-based, Human; conditions: IFN-α 1000 U/ml, pSTAT1 in CD4+ T cells
Description: Human peripheral blood mononuclear cells (hPBMC) were plated at a cell density of 1×10^5 cells/well and placed in a 37° C. incubator for 90 minutes. Different concentrations of compounds were then added to the cells, wherein the concentration of each compound started from […] and was serially diluted 5-fold to a total of 8 concentrations. Compounds and cells were incubated at 37° C. for 30 minutes. IFN-α (1000 U/ml) was used to stimulate hPBMC, and then flow cytometry was used to detect the level of phosphorylated STAT1 in CD4+ T cells to evaluate the inhibitory activity of compounds on the IFN-α pathway.

[3] = target: TYK2 protein (His-TVMV-TYK2 JH2 (575-869)) (Homo sapiens (Human), UniProt P29597); assay: Tyk2 JH2 enzymatic activity assay (HTRF, fluorescein-labeled kinase tracer); assay type: binding; conditions: 90 minutes at room temperature
Sequence of TYK2 protein (His-TVMV-TYK2 JH2 (575-869)) (P29597 575-869, species assumed): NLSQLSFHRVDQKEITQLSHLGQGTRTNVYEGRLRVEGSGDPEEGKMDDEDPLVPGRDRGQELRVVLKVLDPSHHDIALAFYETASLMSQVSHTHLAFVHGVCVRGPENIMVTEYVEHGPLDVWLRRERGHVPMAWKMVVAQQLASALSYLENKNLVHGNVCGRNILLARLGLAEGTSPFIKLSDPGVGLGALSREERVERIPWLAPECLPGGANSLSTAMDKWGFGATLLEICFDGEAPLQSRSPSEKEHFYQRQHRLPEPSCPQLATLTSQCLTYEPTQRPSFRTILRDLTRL
Description: The assay system was incubated at room temperature for 90 minutes. The resulting HTRF (homogeneous time-resolved fluorescence) signal, i.e., the ratio of the fluorescence intensity of the fluorescein acceptor (520 nm) and the terbium donor (495 nm) at the emission wavelength, was then measured on an Envision plate reader, and based on this, the IC50 value was calculated.

IC50 [3] [nM]	SMILES	other results
–	[2H]C([2H])([2H])CC(=O)c1cnc(NC(=O)C2CC2)cc1Nc1cccc(-c2cnc(N=S(C)(C)=O)cn2)c1OC [Compound 1]	AUC ([1]; IV (1 mg/kg)): 9.38 µM·h; clearance ([1]; IV (1 mg/kg), read-out: Cl (clearance rate)): 3.39 mL/min/kg; half-life ([1]; IV (1 mg/kg), read-out: T1/2 (half-life) (converted)): 1.61 h; Vd ([1]; IV (1 mg/kg), read-out: Vd (volume of distribution)): 0.45 L/kg; AUC ([1]; PO (10 mg/kg)): 47.2 µM·h; Cmax ([1]; PO (10 mg/kg), read-out: Cmax (maximum concentration)): 13.4 µM; bioavailability ([1]; PO (10 mg/kg), read-out: F (bioavailability)): 51.4%; Tmax ([1]; PO (10 mg/kg), read-out: Tmax (time to peak concentration)): 0.75 h; IC50 [2]: 1.1 nM
0.06	[2H]C([2H])([2H])NC(=O)c1nnc(NC(=O)C2CC2)cc1Nc1cccc(-c2cnc(N=S(C)(C)=O)cn2)c1OC [Compound 2]	IC50 ([2]; Homo sapiens, CD4+ T): 0.2 nM
0.03	[2H]C([2H])([2H])NC(=O)c1cnc(NC(=O)C2CC2)cc1Nc1cccc(-c2cnc(N=S(C)(C)=O)cn2)c1OC [Compound 3]	IC50 ([2]; Homo sapiens, CD4+ T): 2.1 nM
0.07	CCC(=O)c1cnc(NC(=O)C2CC2)cc1Nc1cccc(-c2cnc(N=S(C)(C)=O)cn2)c1OC [Compound 4]	IC50 ([2]; Homo sapiens, CD4+ T): 0.6 nM
0.07	[2H]C([2H])([2H])CC(=O)c1cnc(NC(=O)C2CC2)cc1Nc1cccc(-c2cnc(N=S3(=O)CCOCC3)cn2)c1OC [Compound 5]	–
0.18	[2H]C([2H])([2H])CC(=O)c1cnc(NC(=O)C2CC2)cc1Nc1cccc(-c2cnc(N=S3(=O)CCC3)cn2)c1OC [Compound 6]	–
0.09	[2H]C([2H])([2H])CC(=O)c1cnc(NC(=O)C2CC2)cc1Nc1cccc(-c2cnc(N=S3(=O)CCCC3)cn2)c1OC [Compound 7]	–
0.15	[2H]C([2H])([2H])CC(=O)c1cnc(NC(=O)C2CC2)cc1Nc1cccc(-c2cnc(N=S3(=O)CCN(C)CC3)cn2)c1OC [Compound 8]	IC50 ([2]; Homo sapiens, CD4+ T): 0.4 nM
0.07	[2H]C([2H])([2H])CC(=O)c1cnc(NC(=O)C2CC2)cc1Nc1cccc(-c2cnc(N=S(C)(C)=O)cn2)c1OC [Compound 9]	IC50 [2]: 0.5 nM
0.06	[2H]C([2H])([2H])CC(=O)c1cnc(Nc2ccccn2)cc1Nc1cccc(-c2cnc(N=S(C)(C)=O)cn2)c1OC [Compound 10]	–
0.11	[2H]C([2H])([2H])CC(=O)c1cnc(Nc2ccc(F)cn2)cc1Nc1cccc(-c2cnc(N=S(C)(C)=O)cn2)c1OC [Compound 11]	–
0.05	[2H]C([2H])([2H])CC(=O)c1cnc(Nc2cccc(C#N)n2)cc1Nc1cccc(-c2cnc(N=S(C)(C)=O)cn2)c1OC [Compound 12]	–
0.12	[2H]C([2H])([2H])CC(=O)c1cnc(Nc2cncc(C)n2)cc1Nc1cccc(-c2cnc(N=S(C)(C)=O)cn2)c1OC [Compound 13]	–
0.25	[2H]C([2H])([2H])CC(=O)c1cnc(NC(=O)C2CCC2)cc1Nc1cccc(-c2cnc(N=S(C)(C)=O)cn2)c1OC [Compound 14]	–
0.08	[2H]C([2H])([2H])CC(=O)c1cnc(NC(=O)C2CC2)cc1Nc1cc(F)cc(-c2cnc(N=S(C)(C)=O)cn2)c1OC [Compound 15]	–
0.08	[2H]C([2H])([2H])CC(=O)c1cnc(NC(=O)C2CC2)cc1Nc1nccc(-c2cnc(N=S(C)(C)=O)cn2)c1OC [Compound 16]	–

IC50 [3] [nM]	SMILES	other results
0.29	COCC(=O)c1cnc(NC(=O)C2CC2)cc1Nc1cccc(-c2cnc(N=S(C)(C)=O)cn2)c1OC [Compound 17]	–
0.09	COc1c(Nc2cc(NC(=O)C3CC3)ncc2C(C)=O)cccc1-c1cnc(N=S(C)(C)=O)cn1 [Compound 18]	–
0.12	COc1c(Nc2cc(NC(=O)C3CC3)ncc2C(=O)C2CC2)cccc1-c1cnc(N=S(C)(C)=O)cn1 [Compound 19]	–
0.19	[2H]C([2H])([2H])CC(=O)c1cnc(NC(=O)N2CCC2)cc1Nc1cccc(-c2cnc(N=S(C)(C)=O)cn2)c1OC [Compound 20]	–
0.13	[2H]C([2H])([2H])CC(=O)c1cnc(NC(=O)C2CC2)cc1Nc1cc(C)cc(-c2cnc(N=S(C)(C)=O)cn2)c1OC [Compound 21]	–
0.14	[2H]C([2H])([2H])CC(=O)c1cnc(NC(=O)C2CC2)cc1Nc1cc(OC)cc(-c2cnc(N=S(C)(C)=O)cn2)c1OC [Compound 22 hydrochloride]	–
0.13	[2H]C([2H])([2H])CC(=O)c1cnc(NC(=O)NC2CC2)cc1Nc1cccc(-c2cnc(N=S(C)(C)=O)cn2)c1OC [Compound 23]	–
0.09	[2H]C([2H])([2H])CC(=O)c1cnc(NC(=O)C2CC2)cc1Nc1cccc(-c2cnc(N=S(=O)(CC)CC)cn2)c1OC [Compound 27]	–
0.17	[2H]C([2H])([2H])CC(=O)c1cnc(NC(=O)c2cn[nH]c2)cc1Nc1cccc(-c2cnc(N=S(C)(C)=O)cn2)c1OC [Compound 28]	–
0.11	[2H]C([2H])([2H])CC(=O)c1cnc(Nc2cc3cc[nH]c3cn2)cc1Nc1cccc(-c2cnc(N=S(C)(C)=O)cn2)c1OC [Compound 29]	–
0.56	[2H]C([2H])([2H])CC(=O)c1cnc(NC(=O)C23CC(C2)C3)cc1Nc1cccc(-c2cnc(N=S(C)(C)=O)cn2)c1OC [Compound 30]	–
0.34	[2H]C([2H])([2H])CC(=O)c1cnc(NC(=O)C2C3COCC32)cc1Nc1cccc(-c2cnc(N=S(C)(C)=O)cn2)c1OC (centres unmarked) [Compound 31]	–
0.31	[2H]C([2H])([2H])CC(=O)c1cnc(NC(=O)C2CC3(CCC3)C2)cc1Nc1cccc(-c2cnc(N=S(C)(C)=O)cn2)c1OC [Compound 32]	–
0.3	[2H]C([2H])([2H])CC(=O)c1cnc(NC(=O)C2CC3CCC2C3)cc1Nc1cccc(-c2cnc(N=S(C)(C)=O)cn2)c1OC (centres unmarked) [Compound 33]	–
0.76	[2H]C([2H])([2H])CC(=O)c1cnc(Nc2ccn(C)c(=O)c2)cc1Nc1cccc(-c2cnc(N=S(C)(C)=O)cn2)c1OC [Compound 35]	–
